In patent US8686184B2, “Neprilysin inhibitors” (Theravance, Inc., priority 2011, dated 2014):

Each compound was assayed against T1, human neprilysin (EC 3.4.24.11; NEP) (Homo sapiens, UniProt P08473) (assay: In vitro enzyme inhibition assay at human NEP (fluorogenic peptide substrate)). Details: recombinant human NEP; 37° C.; substrate Mca-D-Arg-Arg-Leu-Dap-(Dnp)-OH 10 μM; values given as ranges; read-out: pKi values at human NEP (converted).
T1 construct: purchased R&D Systems, Minneapolis, Minn; 1182-ZN
Type: biochemical
Description: In vitro Assays for the Quantitation of Inhibitor Potencies at Human and Rat NEP, and Human ACE
The inhibitory activities of compounds at human and rat neprilysin (EC 3.4.24.11; NEP) and human angiotensin converting enzyme (ACE) were determined using in vitro assays as described below.
Recombinant human NEP and recombinant human ACE were obtained commercially (R&D Systems, Minneapolis, Minn., catalog numbers 1182-ZN and 929-ZN, respectively). The fluorogenic peptide substrate Mca-D-Arg-Arg-Leu-Dap-(Dnp)-OH (Medeiros et al. (1997) Braz. J. Med. Biol. Res. 30:1157-62; Anaspec, San Jose, Calif.) and Abz-Phe-Arg-Lys(Dnp)-Pro-OH (Araujo et al. (2000) Biochemistry 39:8519-8525; Bachem, Torrance, Calif.) were used in the NEP and ACE assays respectively.
The assays were performed in 384-well white opaque plates at 37° C. using the fluorogenic peptide substrates at a concentration of 10 μM in Assay Buffer (NEP: 50 mM HEPES, pH 7.5, 100 mM NaCl, 0.01% polyethylene glycol sorbitan monolaurate (Tween-20), 10 μM ZnSO4; ACE: 50 mM HEPES, pH 7.5, 100 mM NaCl, 0.01% Tween-20, 1 μM ZnSO4).
Test compounds were assayed over the range of concentrations from 10 μM to 20 pM. Test compounds were added to the enzymes and incubated for 30 minute at 37° C. prior to initiating the reaction by the addition of substrate. Reactions were terminated after 20 minutes of incubation at 37° C. by the addition of glacial acetic acid to a final concentration of 3.6% (v/v).
Plates were read on a fluorometer with excitation and emission wavelengths set to 320 nm and 405 nm, respectively Inhibition constants were obtained by nonlinear regression of the data using the equation (GraphPad Software, Inc., San Diego, Calif.): v=v0/[1+(I/K′)] where v is the reaction rate, v0 is the uninhibited reaction rate, I is the inhibitor concentration and K′ is the apparent inhibition constant.
Compounds of the invention were tested in this assay and found to have pKi values at human NEP as follows.

T1 sequence (P08473 52-750 limits assumed): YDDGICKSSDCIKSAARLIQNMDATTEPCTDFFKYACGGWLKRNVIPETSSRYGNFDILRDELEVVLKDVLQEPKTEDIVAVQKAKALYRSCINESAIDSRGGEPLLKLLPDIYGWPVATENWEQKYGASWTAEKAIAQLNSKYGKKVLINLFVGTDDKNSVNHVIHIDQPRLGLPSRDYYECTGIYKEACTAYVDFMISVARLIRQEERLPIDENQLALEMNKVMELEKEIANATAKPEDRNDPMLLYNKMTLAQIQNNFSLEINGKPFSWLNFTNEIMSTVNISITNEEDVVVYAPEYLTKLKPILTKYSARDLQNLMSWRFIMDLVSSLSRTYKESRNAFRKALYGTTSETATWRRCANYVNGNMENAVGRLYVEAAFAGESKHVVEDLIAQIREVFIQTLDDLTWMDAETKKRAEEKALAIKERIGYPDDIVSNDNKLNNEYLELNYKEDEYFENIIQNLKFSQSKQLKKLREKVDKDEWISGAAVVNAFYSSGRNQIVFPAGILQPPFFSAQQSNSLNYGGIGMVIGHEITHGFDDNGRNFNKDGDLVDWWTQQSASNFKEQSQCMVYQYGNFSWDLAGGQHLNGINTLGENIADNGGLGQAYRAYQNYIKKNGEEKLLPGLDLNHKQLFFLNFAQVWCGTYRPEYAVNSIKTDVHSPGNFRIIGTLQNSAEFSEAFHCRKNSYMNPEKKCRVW

Ki [nM] | Structure (SMILES)
1.26 to 10 | Cc1ccc(C(=O)N[C@H](Cc2ccccc2)[C@@H](O)C(=O)O)cc1-c1ccccc1C(=O)O [Example 10-15, 5′-((1R,2R)-1-Benzyl-2-carboxy-2-hydroxy-ethylcarbamoyl)-2′-methyl-biphenyl-2-carboxylic acid]
1.26 to 10 | CC(C)c1ccc(C(=O)N[C@H](Cc2ccccc2)[C@@H](O)C(=O)O)cc1-c1ccccc1C(=O)O [Example 10-17, 5′-((1R,2R)-1-Benzyl-2-carboxy-2-hydroxy-ethylcarbamoyl)-2′-isopropyl-biphenyl-2-carboxylic acid]
12.6 to 100 | NS(=O)(=O)c1cccc(-c2cccc(C(=O)N[C@H](Cc3ccccc3)[C@@H](O)C(=O)O)c2)c1 [Example 10-30, (2R,3R)-2-Hydroxy-4-phenyl-3-[(3′-sulfamoyl-biphenyl-3-carbonyl)-amino]-butyric acid]
12.6 to 100 | CCc1ccc(C(=O)N[C@H](Cc2ccccc2)[C@@H](O)C(=O)O)cc1 [Example 10-32, (2R,3R)-3-(4-Ethyl-benzoylamino)-2-hydroxy-4-phenyl-butyric acid]
12.6 to 100 | CCCCc1ccc(C(=O)N[C@H](Cc2ccccc2)[C@@H](O)C(=O)O)cc1 [Example 10-35, (2R,3R)-3-(4-Butyl-benzoylamino)-2-hydroxy-4-phenyl-butyric acid]
12.6 to 100 | CC(C)Cc1ccc(C(=O)N[C@H](Cc2ccccc2)[C@@H](O)C(=O)O)cc1 [Example 10-36, (2R,3R)-2-Hydroxy-3-(4-isobutyl-benzoylamino)-4-phenyl-butyric acid]
12.6 to 100 | CCCCCc1ccc(C(=O)N[C@H](Cc2ccccc2)[C@@H](O)C(=O)O)cc1 [Example 10-38, (2R,3R)-2-Hydroxy-3-(4-pentyl-benzoylamino)-4-phenyl-butyric acid]
12.6 to 100 | O=C(N[C@H](Cc1ccccc1)[C@@H](O)C(=O)O)c1ccc(-n2cccc2)cc1 [Example 10-43, (2R,3R)-2-Hydroxy-4-phenyl-3-(4-pyrrol-1-yl-benzoylamino)-butyric acid]
12.6 to 100 | O=C(N[C@H](Cc1ccccc1)[C@@H](O)C(=O)O)c1ccc(Cn2cccc2)cc1 [Example 10-44, (2R,3R)-2-Hydroxy-4-phenyl-3-(4-pyrrol-1-ylmethyl-benzoylamino)-butyric acid]
12.6 to 100 | O=C(N[C@H](Cc1ccccc1)[C@@H](O)C(=O)O)c1ccc(CCn2ccnc2)cc1 [Example 10-47, (2R,3R)-2-Hydroxy-3-[4-(2-imidazol-1-yl-ethyl)-benzoylamino]-4-phenyl-butyric acid]

The remaining lines, values behind:

Structure (SMILES) | Ki [nM]
O=C(N[C@H](Cc1ccccc1)[C@@H](O)C(=O)O)c1cccc(-c2cc(F)ccc2C(=O)O)c1 [Example 10-14, 3′-((1R,2R)-1-Benzyl-2-carboxy-2-hydroxy-ethylcarbamoyl)-5-fluoro-biphenyl-2-carboxylic acid] | 12.6 to 100
CCc1ccc(C(=O)N[C@H](Cc2ccccc2)[C@@H](O)C(=O)O)cc1-c1ccccc1C(=O)O [Example 10-19, 5′-((1R,2R)-1-Benzyl-2-carboxy-2-hydroxy-ethylcarbamoyl)-2′-ethyl-biphenyl-2-carboxylic acid] | 1.26 to 10
Cc1ccc(C(=O)N[C@H](Cc2ccccc2)[C@@H](O)C(=O)O)cc1-c1ccccc1CC(=O)O [Example 10-20, (2R,3R)-3-[(2′-Carboxymethyl-6-methyl-biphenyl-3-carbonyl)-amino]-2-hydroxy-4-phenyl-butyric acid] | 12.6 to 100
O=C(N[C@H](Cc1ccccc1)[C@@H](O)C(=O)O)c1ccc(N2CCOCC2)c(-c2ccccc2C(=O)O)c1 [Example 10-21, 5′-((1R,2R)-1-Benzyl-2-carboxy-2-hydroxy-ethylcarbamoyl)-2′-morpholin-4-yl-biphenyl-2-carboxylic acid] | 12.6 to 100
O=C(N[C@H](Cc1ccccc1)[C@@H](O)C(=O)O)c1ccc(Cl)c(-c2ccccc2C(=O)O)c1 [Example 10-22, 5′-((1R,2R)-1-Benzyl-2-carboxy-2-hydroxy-ethylcarbamoyl)-2′-chloro-biphenyl-2-carboxylic acid] | 1.26 to 10
O=C(N[C@H](Cc1ccccc1)[C@@H](O)C(=O)O)c1cc(O)cc(-c2ccccc2C(=O)O)c1 [Example 10-24, 3′-((1R,2R)-1-Benzyl-2-carboxy-2-hydroxy-ethylcarbamoyl)-5′-hydroxy-biphenyl-2-carboxylic acid] | 12.6 to 100
O=C(N[C@H](Cc1ccccc1)[C@@H](O)C(=O)O)c1cc(F)cc(-c2ccccc2C(=O)O)c1 [Example 10-25, 3′-((1R,2R)-1-Benzyl-2-carboxy-2-hydroxy-ethylcarbamoyl)-5′-fluoro-biphenyl-2-carboxylic acid] | 1.26 to 10
O=C(N[C@H](Cc1ccccc1)[C@@H](O)C(=O)O)c1cc(Cl)cc(-c2ccccc2C(=O)O)c1 [Example 10-26, 3′-((1R,2R)-1-Benzyl-2-carboxy-2-hydroxy-ethylcarbamoyl)-5′-chloro-biphenyl-2-carboxylic acid] | 1.26 to 10
Cc1cc(C(=O)N[C@H](Cc2ccccc2)[C@@H](O)C(=O)O)cc(-c2ccccc2C(=O)O)c1 [Example 10-27, 3′-((1R,2R)-1-Benzyl-2-carboxy-2-hydroxy-ethylcarbamoyl)-5′-methyl-biphenyl-2-carboxylic acid] | 12.6 to 100
O=C(N[C@H](Cc1ccccc1)[C@@H](O)C(=O)O)c1ccc(-c2ccccc2)c(C(=O)O)c1 [Example 10-28, 4-((1R,2R)-1-Benzyl-2-carboxy-2-hydroxy-ethylcarbamoyl)-biphenyl-2-carboxylic acid] | 12.6 to 100
O=C(O)c1cc(C(=O)N[C@H](Cc2ccccc2)[C@@H](O)C(=O)O)cc(-c2ccccc2)c1 [Example 10-29, 5-((1R,2R)-1-Benzyl-2-carboxy-2-hydroxy-ethylcarbamoyl)-biphenyl-3-carboxylic acid] | 12.6 to 100
O=C(N[C@H](Cc1ccccc1)[C@@H](O)C(=O)O)c1cccc(-c2cccc(-c3nnn[nH]3)c2)c1 [Example 10-31, (2R,3R)-2-Hydroxy-4-phenyl-3-{[3′-(1H-tetrazol-5-yl)-biphenyl-3-carbonyl]-amino}-butyric acid] | 12.6 to 100
CCCc1ccc(C(=O)N[C@H](Cc2ccccc2)[C@@H](O)C(=O)O)cc1 [Example 10-33, (2R,3R)-2-Hydroxy-4-phenyl-3-(4-propyl-benzoylamino)-butyric acid] | 12.6 to 100
CC(C)c1ccc(C(=O)N[C@H](Cc2ccccc2)[C@@H](O)C(=O)O)cc1 [Example 10-34, (2R,3R)-2-Hydroxy-3-(4-isopropyl-benzoylamino)-4-phenyl-butyric acid] | 12.6 to 100
O=C(N[C@H](Cc1ccccc1)[C@@H](O)C(=O)O)c1ccc(C2CC2)cc1 [Example 10-39, (2R,3R)-3-(4-Cyclopropyl-benzoylamino)-2-hydroxy-4-phenyl-butyric acid] | 12.6 to 100
O=C(N[C@H](Cc1ccccc1)[C@@H](O)C(=O)O)c1ccc(C2CCCCC2)cc1 [Example 10-40, (2R,3R)-3-(4-Cyclohexyl-benzoylamino)-2-hydroxy-4-phenyl-butyric acid] | 12.6 to 100
CC1=NN(c2ccc(C(=O)N[C@H](Cc3ccccc3)[C@@H](O)C(=O)O)cc2)C(=O)C1 [Example 10-41, (2R,3R)-2-Hydroxy-3-[4-(3-methyl-5-oxo-4,5-dihydro-pyrazol-1-yl)-benzoylamino]-4-phenyl-butyric acid] | 12.6 to 100
Cc1nnnn1Cc1ccc(C(=O)N[C@H](Cc2ccccc2)[C@@H](O)C(=O)O)cc1 [Example 10-45, (2R,3R)-2-Hydroxy-3-[4-(5-methyl-tetrazol-1-ylmethyl)-benzoylamino]-4-phenyl-butyric acid] | 12.6 to 100
O=C(N[C@H](Cc1ccccc1)[C@@H](O)C(=O)O)c1ccc(Cn2ccnc2)cc1 [Example 10-46, (2R,3R)-2-Hydroxy-3-(4-imidazol-1-ylmethyl-benzoylamino)-4-phenyl-butyric acid] | 12.6 to 100
O=C(O)Cc1ccccc1-c1ccc(C(=O)N[C@H](Cc2ccccc2)[C@@H](O)C(=O)O)cc1 [Example 10-48, (2R,3R)-3-[(2′-Carboxymethyl-biphenyl-4-carbonyl)-amino]-2-hydroxy-4-phenyl-butyric acid] | 1.26 to 10
O=C(O)Cc1cccc(-c2ccc(C(=O)N[C@H](Cc3ccccc3)[C@@H](O)C(=O)O)cc2)c1 [Example 10-49, (2R,3R)-3-[(3′-Carboxymethyl-biphenyl-4-carbonyl)-amino]-2-hydroxy-4-phenyl-butyric acid] | 12.6 to 100
O=C(O)Cc1ccc(-c2ccc(C(=O)N[C@H](Cc3ccccc3)[C@@H](O)C(=O)O)cc2)cc1 [Example 10-50, (2R,3R)-3-[(4′-Carboxymethyl-biphenyl-4-carbonyl)-amino]-2-hydroxy-4-phenyl-butyric acid] | 12.6 to 100
